In US5455356A, “Fungicidal 1-aryl-1-[α-(triazolyl)alkyl]-1-silacycloalkanes and their preparation methods” (priority 1993, dated 1995):

Experiments:
Assay type in all cases: cell-based
Botryosphaeri = test: In vitro mycelial/spore growth on potato-sucrose-agar, percent disease control (BD); settings: read-out: % controlled, BD
Method: (§1) The compounds of this invention were dissolved respectively in acetone in an amount equal to 10% of the final volume and then in purified water at the concentration of 100 ppm and 50 ppm.
(§2) Each of the solution was mixed with potato-sucrose-agar medium in 6" petri dish and one of the fungi was spotted at the center of the dish. The dish was incubated in growth room for several days. The percent disease control was derived from the radii of spore growth. The screening tests in vitro condition are well-known to those skilled in the art.
(§3) The following fungi were used for the screening.
4) Bo. do (Ma); Botryosphaeri

Phytophthora capsisi = test: In vitro mycelial/spore growth on potato-sucrose-agar, percent disease control (PC); settings: read-out: % controlled, PC
Method: as §1, §2, §3
2) Phy. ca.; Phytophthora capsisi

Botritis cinerea = test: In vitro mycelial/spore growth on potato-sucrose-agar, percent disease control (BC); settings: read-out: % controlled, BC
Method: as §1, §2, §3
10) Bo. ci.; Botritis cinerea

Fusarium moniliforme = test: In vitro mycelial/spore growth on potato-sucrose-agar, percent disease control (FM); settings: Fusarium verticillioides, Fusarium moniliforme, read-out: % controlled, FM
Method: as §1, §2, §3
8) Fu. mo.; Fusarium moniliforme

Rhizoctonia solani = test: In vitro mycelial/spore growth on potato-sucrose-agar, percent disease control (RS, first column); settings: read-out: % controlled, RS
Method: as §1, §2, §3
7) Rhi. so.; Rhizoctonia solani

GC = test: In vitro mycelial/spore growth on potato-sucrose-agar, percent disease control (GC); settings: read-out: % controlled, GC; for inhibition of growth at 50 ppm: GC
Method: as §1, §2, §3

Pyricalaria oryzae = test: In vitro mycelial/spore growth on potato-sucrose-agar, percent disease control (PO); settings: read-out: % controlled, PO
Method: as §1, §2, §3
6) Py. or.; Pyricalaria oryzae

Rhizopus sp. = test: In vitro mycelial/spore growth on potato-sucrose-agar, percent disease control (RS, second column); settings: read-out: % controlled, RS; for inhibition of growth at 50 ppm: Rhizopus sp.; for inhibition of growth at 200 ppm: Rhizopus
Method: as §1, §2, §3
9) Rhi. sp.; Rhizopus sp.

Compound | inhibition of growth at 50 ppm (Botryosphaeri) [%] | inhibition of growth at 200 ppm (Botryosphaeri) [%] | inhibition of growth at 50 ppm (Phytophthora capsisi) [%] | inhibition of growth at 200 ppm (Phytophthora capsisi) [%] | inhibition of growth at 50 ppm (Botritis cinerea) [%] | inhibition of growth at 200 ppm (Botritis cinerea) [%] | inhibition of growth at 50 ppm (Fusarium moniliforme) [%] | inhibition of growth at 200 ppm (Fusarium moniliforme) [%] | inhibition of growth at 50 ppm (Rhizoctonia solani) [%] | inhibition of growth at 200 ppm (Rhizoctonia solani) [%] | inhibition of growth at 50 ppm (GC) [%] | inhibition of growth at 200 ppm (GC) [%] | inhibition of growth at 50 ppm (Pyricalaria oryzae) [%] | inhibition of growth at 200 ppm (Pyricalaria oryzae) [%] | inhibition of growth at 50 ppm (Rhizopus sp.) [%] | inhibition of growth at 200 ppm (Rhizopus sp.) [%]
CC(n1cncn1)[Si]1(c2ccc(F)cc2)CCCCC1 (stereo not drawn) [1-(4-fluorophenyl)-1-[α-(1H-1,2,4-triazole-1-yl)ethyl]-1-silacyclohexane] | 100 | 100 | 77 | 85 | 100 | 100 | 100 | 100 | 100 | 100 | 100 | 100 | 100 | 100 | 76 | 86
CC(n1cncn1)[Si]1(c2ccc(F)cc2)CCCC1 (stereo not drawn) [1-(4-fluorophenyl)-1-[α-(1H-1,2,4-triazole-1-yl)ethyl]-1-silacyclopentane] | 100 | 100 | 45 | 100 | 100 | 100 | 94 | 100 | 100 | 100 | 100 | 100 | 100 | 100 | 59 | 75
COc1ccc([Si]2(C(C)n3cncn3)CCCCC2)cc1 (stereo not drawn) [1-(4-methoxoyphenyl)-1-[α-(1H-1,2,4-triazole-1-yl)ethyl]-1-silacyclohexane] | 92 | 100 | 55 | 85 | 64 | 100 | 94 | 98 | 93 | 100 | 100 | 100 | 100 | 100 | 49 | 60
COc1ccc([Si]2(Cn3cncn3)CCCCC2)cc1 [1-(4-methoxyphenyl)-1-(1H-1,2,4-triazole-1-yl)methyl-1-silacyclohexane] | 85 | 100 | 49 | 93 | 69 | 89 | 81 | 92 | 96 | 100 | 100 | 100 | 100 | 100 | 65 | 79
COc1ccc([Si]2(Cn3cncn3)CCCC2)cc1 [1-(4-methoxyphenyl)-1-(1H-1,2,4-triazole-1-yl)methyl-1-silacyclopentane] | 75 | 79 | 41 | 100 | 72 | 77 | 70 | 80 | 74 | 100 | 100 | 100 | 100 | 100 | 64 | 75
COc1ccc([Si]2(C(C)n3cncn3)CCCC2)cc1 (stereo not drawn) [1-(4-methoxyphenyl)-1-[α-(1H-1,2,4-triazole-1-yl)ethyl]-1-silacyclopentane] | 71 | 96 | 50 | 90 | 81 | 95 | 94 | 99 | 100 | 100 | 100 | 100 | 100 | 100 | 59 | 80
FC(F)(F)c1ccc([Si]2(Cn3cncn3)CCCCC2)cc1 [1-(4-trifluoromethyl)-1-(1H-1,2,4-triazole-1-yl)methyl-1-silacyclohexane] | 100 | 100 | 75 | 99 | 93 | 100 | 82 | 98 | 54 | 80 | 100 | 100 | 100 | 100 | 63 | 76
FC(F)(F)c1ccc([Si]2(Cn3cncn3)CCCC2)cc1 [1-(4-trifluoromethyl)-1-(1H-1,2,4-triazole-1-yl)methyl-1-silacyclopentane] | 96 | 100 | 70 | 79 | 96 | 100 | 79 | 100 | 95 | 99 | 100 | 100 | 100 | 100 | 69 | 72
CC(n1cncn1)[Si]1(c2ccc(C(F)(F)F)cc2)CCCCC1 (stereo not drawn) [1-(4-trifluoromethyl)-1-[α-(1H-1,2,4-triazole-1-yl)ethyl]-1-silacyclohexane] | 100 | 100 | 39 | 78 | 66 | 99 | 58 | 99 | 99 | 100 | 100 | 100 | 100 | 100 | 47 | 56
CC(n1cncn1)[Si]1(c2ccc(C(F)(F)F)cc2)CCCC1 (stereo not drawn) [1-(4-trifluoromethyl)-1-[α-(1H-1,2,4-triazole-1-yl)ethyl]-1-silacyclopentane] | 90 | 100 | 86 | 98 | 94 | 100 | 73 | 99 | 92 | 100 | 100 | 100 | 100 | 100 | 56 | 75
